Patent publication US20090105072A1, “2-(Pyridin-2-Yl)-Pyrimidines for Use as Fungicides” (priority 2007, published 2009)

System: Puccinia recondita
Assay: Curative activity against brown rust of wheat caused by Puccinia recondita
Format: in vivo
Conditions: 250 ppm, wheat seedlings cultivar Kanzler, 7 days after treatment, untreated plants 90% infected
Experimental: The active compounds were prepared separately or together as a stock solution with 25 mg of active compound which was made up to 10 ml using a mixture of acetone and/or dimethyl sulfoxide (DMSO) and the emulsifier Wettoll® EM 31 (wetting agent having emulsifying and dispersing action based on the ethoxylated alkylphenols) in a volume ratio of solvent/emulsifier of 99 to 1. The mixture was then made up with water to 100 ml. This stock solution was diluted with the solvent/emulsifier/water mixture described to the concentration of active compound stated below.
Leaves of potted wheat seedlings of the cultivar “Kanzler” were inoculated with a spore suspension of brown rust of wheat (Puccinia recondite). The pots were then placed in a chamber with high atmospheric humidity (90 to 95%) and 20 to 22° C. for 24 hours. During this time, the spores germinated and the germ tubes penetrated into the leaf tissue. The next day, the infected plants were sprayed to runoff point with the above-described active compound solution having the active compound concentration stated below. After the spray coating had dried on, the test plants were cultivated in a greenhouse at temperatures between 20 and 22° C. and 65 to 70% relative atmospheric humidity for 7 days. The extent of the rust fungus development on the leaves was then determined.

COc1ccc(-c2nc(-c3ncc4c(n3)CCCCC4)ccc2C)cn1 [Example 44]
infection (extent of the rust fungus development on the leaves): no infection

COc1ccc(-c2nc(-c3ncc4c(n3)CCCCC4)ccc2C)cn1 [drawing 28]
infection (extent of the rust fungus development on the leaves): 90%
